Measurements reported in US20090208408A1, “USE OF VCAM-1 LIGANDS FOR DETECTING AND/OR TREATING CARDIOVASCULAR DISEASES” (UNIVERSITE JOSEPH FOURIER, priority 2004, published 2009).
Like-named read-outs stand apart in the source and are kept apart here. Where a SMILES comes first, the peptide text is derived from it. [ ]: non-standard residue; d: D form. Tyr(3-I) = N[C@@H](Cc1ccc(O)c(I)c1)C(=O)O

Assays:
[1] = Blood kinetics up to 180 minutes after injection; type: in vivo, rabbit; conditions: 180 minutes after the injection
Method: (§1) The tracers ^123I-B2702.84-75 and ^99mTc-B2702.84-75 were evaluated according to the same methodology as was used for Examples 3 and 4, except that the animals were euthanased 180 minutes (30 minutes previously) after the injection of the tracers.
The blood samples for measuring the circulatory tracer activity were taken 1, 2, 5, 10, 20, 25, 30, 60, 120 and 180 minutes after the injection. 180 minutes after the injection, the circulatory activity of ^123I-B2702.84-75 and ^99mTc-B2702.84-75 represents respectively 30% and 15% of the initial activity. It will be recalled that the circulatory activity of ^125I-B2702.84-75 represented approximately 40% of the initial activity 30 minutes after the injection in the experiments described in Example 3.

[2] = Biodistribution 180 minutes after the injection; type: in vivo; conditions: rabbit, iv, total radioactivity
Method: (§2) Samples of blood were taken 1, 2, 5, 10, 15, 20, 25 and 30 minutes after injection of the tracers. The animals were euthanased 30 minutes (examples 2, 3 and 4) or 180 minutes (examples 5 and 6) after injection of the labelled VCAM-1 ligands. Samples of the principal organs were taken. These samples, as well as the blood samples taken, were counted for the radioactivity which they contain. The dorsal aorta, the aortic arch and the ventral aorta were also sampled and immediately placed in 10% formalin. A portion of ventral aorta was placed for 24 hours in 3.7% formaldehyde for subsequent inclusion in paraffin and verification by immunohistology of the presence of VCAM-1.
as §1
The binding values are expressed as a percentage of the injected dose per gram of organ (% ID/g).

atheromatous plaques = assay: Aortic binding, ex vivo autoradiography, euthanasia after 180 minutes; type: in vivo, rabbit; conditions: 180 minutes after injection
Method: as §2
The dorsal and ventral aortas were placed in contact with a high-resolution phosphorus screen (Fujifilm 08SR2025) in darkness for 18 hours. The screen was then scanned (phosphoimager Fujifilm BAS 5000) and the images of the distribution of the labelled VCAM-1 ligands on the aortas of healthy or hyperlipidemic animals were quantified with the aid of the Scion Image Beta software available on the National Institute of Health internet site. […]
The tracers ^123I-B2702.84-75 and ^99mTc-B2702.84-75 were evaluated according to the same methodology as was used for Examples 3 and 4, except that the animals were euthanased 180 minutes (30 minutes previously) after the injection of the tracers. […]

VCAM-1 = biological target: T1, VCAM-1 (Homo sapiens, UniProt P19320); conditions: as shown by Ling et al. (2000); cited from earlier work
T1 sequence (P19320 25-739): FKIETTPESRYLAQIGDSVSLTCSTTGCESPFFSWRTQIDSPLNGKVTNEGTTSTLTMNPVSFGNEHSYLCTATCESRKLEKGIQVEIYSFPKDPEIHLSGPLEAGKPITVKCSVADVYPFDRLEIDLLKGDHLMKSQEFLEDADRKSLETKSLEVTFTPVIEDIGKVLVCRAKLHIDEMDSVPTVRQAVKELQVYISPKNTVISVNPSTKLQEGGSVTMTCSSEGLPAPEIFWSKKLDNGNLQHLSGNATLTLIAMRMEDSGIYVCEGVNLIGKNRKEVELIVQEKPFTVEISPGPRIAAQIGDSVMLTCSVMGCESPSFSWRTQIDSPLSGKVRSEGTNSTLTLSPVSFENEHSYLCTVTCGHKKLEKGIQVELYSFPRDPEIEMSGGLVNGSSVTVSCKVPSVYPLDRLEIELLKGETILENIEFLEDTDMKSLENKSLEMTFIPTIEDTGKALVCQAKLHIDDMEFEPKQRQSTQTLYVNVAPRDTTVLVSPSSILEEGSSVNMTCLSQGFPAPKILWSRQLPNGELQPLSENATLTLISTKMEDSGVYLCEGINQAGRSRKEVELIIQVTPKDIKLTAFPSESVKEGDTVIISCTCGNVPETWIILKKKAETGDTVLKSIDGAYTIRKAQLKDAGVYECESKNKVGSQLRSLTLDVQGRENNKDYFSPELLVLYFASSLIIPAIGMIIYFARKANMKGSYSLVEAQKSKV

CC[C@H](C)[C@H](NC(=O)[C@H](C)NC(=O)[C@H](CC(C)C)NC(=O)[C@H](CCCNC(=N)N)NC(=O)[C@@H](N)Cc1ccc(O)c(I)c1)C(=O)N[C@@H](CCCNC(=N)N)C(=O)N[C@@H](CC(C)C)C(=O)N[C@@H](CC(N)=O)C(=O)N[C@@H](CCC(=O)O)C(=O)N[C@@H](CCCNC(=N)N)C(=O)O [^123I-B2702.84-75] (H-[Tyr(3-I)]RLAIRLNER-OH; N-terminus and C-terminus assumed)
circulatory activity, of the initial activity [1]: 30% | tissue uptake at 3 h ([2]; aorta, Control rabbits (n = 3), read-out: Biodistribution, Aorta): 0.011 ± 0.004 %ID/g | tissue uptake at 3 h ([2]; aorta, WHHL rabbits (n = 3), read-out: Biodistribution, Aorta): 0.034 ± 0.012 %ID/g | tissue uptake at 3 h ([2]; blood, Control rabbits (n = 3), read-out: Biodistribution, Blood): 0.19 ± 0.038 %ID/g | tissue uptake at 3 h ([2]; blood, WHHL rabbits (n = 3), read-out: Biodistribution, Blood): 0.161 ± 0.048 %ID/g | tissue uptake at 3 h ([2]; fat, Control rabbits (n = 3), read-out: Biodistribution, Fat): 0.011 ± 0.001 %ID/g | tissue uptake at 3 h ([2]; fat, WHHL rabbits (n = 3), read-out: Biodistribution, Fat): 0.015 ± 0.006 %ID/g | tissue uptake at 3 h ([2]; heart, Control rabbits (n = 3), read-out: Biodistribution, Heart): 0.088 ± 0.017 %ID/g | tissue uptake at 3 h ([2]; heart, WHHL rabbits (n = 3), read-out: Biodistribution, Heart): 0.088 ± 0.031 %ID/g | tissue uptake at 3 h ([2]; kidney, Control rabbits (n = 3), read-out: Biodistribution, Kidney): 0.307 ± 0.052 %ID/g | tissue uptake at 3 h ([2]; kidney, WHHL rabbits (n = 3), read-out: Biodistribution, Kidney): 0.49 ± 0.184 %ID/g | tissue uptake at 3 h ([2]; liver, Control rabbits (n = 3), read-out: Biodistribution, Liver): 0.086 ± 0.025 %ID/g | tissue uptake at 3 h ([2]; liver, WHHL rabbits (n = 3), read-out: Biodistribution, Liver): 0.096 ± 0.029 %ID/g | tissue uptake at 3 h ([2]; lung, Control rabbits (n = 3), read-out: Biodistribution, Lung): 0.138 ± 0.028 %ID/g | tissue uptake at 3 h ([2]; lung, WHHL rabbits (n = 3), read-out: Biodistribution, Lung): 0.163 ± 0.044 %ID/g | tissue uptake at 3 h ([2]; muscle, Control rabbits (n = 3), read-out: Biodistribution, Muscle): 0.028 ± 0.003 %ID/g | tissue uptake at 3 h ([2]; muscle, WHHL rabbits (n = 3), read-out: Biodistribution, Muscle): 0.026 ± 0.009 %ID/g | tissue uptake at 3 h ([2]; spleen, Control rabbits (n = 3), read-out: Biodistribution, Spleen): 0.076 ± 0.015 %ID/g | tissue uptake at 3 h ([2]; spleen, WHHL rabbits (n = 3), read-out: Biodistribution, Spleen): 0.089 ± 0.029 %ID/g | tissue uptake at 3 h ([2]; stomach, Control rabbits (n = 3), read-out: Biodistribution, Stomach): 0.095 ± 0.025 %ID/g | tissue uptake at 3 h ([2]; stomach, WHHL rabbits (n = 3), read-out: Biodistribution, Stomach): 0.114 ± 0.04 %ID/g | binding on atheromatous plaques of WHHL animals relative to aortas of control animals (atheromatous plaques): 17.0 times | binding ratio atheromatous plaque / normal aortic zone (atheromatous plaques; WHHL animals): 4.0

B2702.84-75/75-84: peptide of sequence YRLAIRLNERRENLRIALRY (SEQ ID no 2), inverse dimer of residues 84-75/75-84 of HLA-B2702 (listed as Homo sapiens)
binding to VCAM-1 (VCAM-1): bind specifically to VCAM-1
